According to patent publication US10604523B2, “1-aryl-4-methyl-[1,2,4]triazolo[4,3-a]quinoxaline derivatives” (Janssen Pharmaceutica NV, priority 2011, dated 2020):

Experiments:
[1] = molecular target: T1, Human recombinant PDE2A (hPDE2A) (Homo sapiens, UniProt O00408); test: In vitro assay PDE2A (SPA, 3H-cGMP); type: biochemical; settings: read-out: pIC50 PDE2 (converted)
T1 construct: made in house; host or cells: Sf9 insect cells (baculovirus)
Experimental: Tested compounds were dissolved and diluted in 100% DMSO to a concentration 100 fold of the final concentration in the assay. Compound dilutions (0.4 μl) were added in 384 well plates to 20 μl of incubation buffer (50 mM Tris pH 7.8, 8.3 mM MgCl2, 1.7 mM EGTA). 10 μl of hPDE2A enzyme in incubation buffer was added and the reaction was started by addition of 10 μl substrate to a final concentration of 10 μM cGMP and 0.01 μCi ^3H-cGMP. The reaction was incubated for 45 minutes at room temperature. […] After sedimentation of the beads during 30 minutes the radioactivity was measured in a Perkin Elmer Topcount scintillation counter and results were expressed as cpm. For blanc values the enzyme was omitted from the reaction and replaced by incubation buffer. Control values were obtained by addition of a final concentration of 1% DMSO instead of compound.

[2] = molecular target: T2, Rat recombinant PDE10A (rPDE10A2) (Rattus norvegicus, UniProt Q9QYJ6); test: In vitro assay PDE10A (SPA, 3H-cAMP); type: biochemical; settings: read-out: PIC50 PDE10 (converted)
T2 construct: made in house; host or cells: Sf9 insect cells (baculovirus)
T2 sequence (Q9QYJ6 1-794): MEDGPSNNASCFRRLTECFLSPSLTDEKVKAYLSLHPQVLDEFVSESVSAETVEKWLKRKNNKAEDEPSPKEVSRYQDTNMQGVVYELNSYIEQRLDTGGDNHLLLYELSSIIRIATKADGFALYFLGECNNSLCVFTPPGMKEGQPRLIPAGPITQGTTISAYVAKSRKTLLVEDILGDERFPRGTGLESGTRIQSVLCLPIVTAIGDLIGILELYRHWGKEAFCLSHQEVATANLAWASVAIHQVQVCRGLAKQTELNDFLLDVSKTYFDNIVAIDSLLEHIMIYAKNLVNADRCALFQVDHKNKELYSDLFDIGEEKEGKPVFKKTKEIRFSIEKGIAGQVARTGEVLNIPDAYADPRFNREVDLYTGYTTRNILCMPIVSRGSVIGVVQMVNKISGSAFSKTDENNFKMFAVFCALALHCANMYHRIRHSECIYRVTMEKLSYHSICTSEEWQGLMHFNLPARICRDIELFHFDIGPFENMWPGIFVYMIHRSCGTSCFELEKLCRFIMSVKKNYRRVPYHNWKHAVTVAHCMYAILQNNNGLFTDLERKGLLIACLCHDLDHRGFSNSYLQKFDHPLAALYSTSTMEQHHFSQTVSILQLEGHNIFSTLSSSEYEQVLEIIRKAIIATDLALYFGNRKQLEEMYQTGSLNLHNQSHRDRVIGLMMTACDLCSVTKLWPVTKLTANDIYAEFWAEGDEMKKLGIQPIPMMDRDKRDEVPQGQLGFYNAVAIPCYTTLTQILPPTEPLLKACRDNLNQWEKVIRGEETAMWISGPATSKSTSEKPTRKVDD

[3] = test system: Apomorphine-induced agitation; test: Reversal of Apomorphine-induced Agitation in Rats (APO); type: in vivo, rat; settings: for SC Dose at max effect / SC Max effect (cumulative agitation score over 60 min) / SC LAD (lowest active dose): subcutaneous route; for SC Max effect (cumulative agitation score over 60 min) / PO Max effect (cumulative agitation score over 60 min): apomorphine 1.0 mg/kg i.v.; for SC LAD (lowest active dose) / PO LAD (lowest active dose): lowest dose at which ≥67% tested animals respond
Experimental: Apomorphine (1.0 mg/kg, i.v.)-induced agitation was scored every 5 min over the first hour after injection of apomorphine. The score system was: (3) pronounced, (2) moderate, (1) slight, and (0) absent. […] For the present purpose, the cumulative agitation score over the whole 60-min observation period was used as a measure to describe the maximum effect (Max effect).

T1 sequence (O00408 whole entry): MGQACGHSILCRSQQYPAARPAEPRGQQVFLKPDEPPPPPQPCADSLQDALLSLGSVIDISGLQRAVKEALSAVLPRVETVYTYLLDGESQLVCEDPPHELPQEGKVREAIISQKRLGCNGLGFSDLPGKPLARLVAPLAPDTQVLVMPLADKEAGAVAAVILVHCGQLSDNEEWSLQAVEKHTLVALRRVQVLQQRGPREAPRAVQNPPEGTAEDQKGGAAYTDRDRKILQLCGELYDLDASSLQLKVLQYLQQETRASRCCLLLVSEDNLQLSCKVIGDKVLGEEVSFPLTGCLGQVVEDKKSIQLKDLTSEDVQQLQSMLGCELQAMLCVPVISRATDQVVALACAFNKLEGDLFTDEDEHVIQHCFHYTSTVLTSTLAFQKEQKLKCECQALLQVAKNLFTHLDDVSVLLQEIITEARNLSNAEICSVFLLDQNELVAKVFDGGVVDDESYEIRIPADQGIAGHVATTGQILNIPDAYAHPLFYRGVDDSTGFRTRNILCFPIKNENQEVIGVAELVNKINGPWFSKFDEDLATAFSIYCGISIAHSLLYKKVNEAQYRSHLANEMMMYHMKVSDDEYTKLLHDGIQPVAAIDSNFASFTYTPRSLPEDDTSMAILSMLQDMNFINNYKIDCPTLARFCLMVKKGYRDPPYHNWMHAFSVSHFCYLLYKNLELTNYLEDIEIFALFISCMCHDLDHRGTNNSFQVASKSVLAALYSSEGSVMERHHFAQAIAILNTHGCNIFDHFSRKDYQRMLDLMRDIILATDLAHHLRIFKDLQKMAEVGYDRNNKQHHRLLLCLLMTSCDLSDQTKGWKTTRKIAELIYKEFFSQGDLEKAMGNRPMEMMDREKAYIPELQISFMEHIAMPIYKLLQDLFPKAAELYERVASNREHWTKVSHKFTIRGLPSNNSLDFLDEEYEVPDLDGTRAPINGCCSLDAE

Row | SMILES | IC50 [1] [nM] | IC50 [2] [nM] | further results
1 | COCC1CCN(Cc2ccc3nc(C)c4nnc(-c5ccccc5Cl)n4c3c2)C1 (stereo not drawn) [Compound B-94] | 12.9 | 64.6 | SC Dose at max effect [3]: 5 mg/kg; SC Max effect (cumulative agitation score over 60 min) [3]: 24; SC LAD (lowest active dose) [3]: > 5 mg/kg
2 | CNC(=O)c1ccc2nc(C)c3nnc(-c4ccccc4Cl)n3c2c1 [Compound B-46] | 1.95 | 20 | PO Dose at Max Effect [3]: 10 mg/kg; PO Max effect (cumulative agitation score over 60 min) [3]: 21; PO LAD (lowest active dose) [3]: > 10 mg/kg
3 | Cc1ncccc1-c1nnc2c(C)nc3ccc(Br)cc3n12 [Compound B-131] | 29.5 | 132 | PO Dose at Max Effect [3]: 10 mg/kg; PO Max effect (cumulative agitation score over 60 min) [3]: 17; PO LAD (lowest active dose) [3]: 10 mg/kg
4 | Cc1nc2ccc(C(=O)NCCc3ccccc3)cc2n2c(-c3ccccc3Cl)nnc12 [Compound B-38] | 0.724 | 25.1 | PO Dose at Max Effect [3]: 2.5 mg/kg; PO Max effect (cumulative agitation score over 60 min) [3]: 19; PO LAD (lowest active dose) [3]: 2.5 mg/kg
5 | Cc1nc2ccc(C(=O)NCc3ccccc3)cc2n2c(-c3ccccc3Cl)nnc12 [Compound B-34] | 0.372 | 12 | PO Dose at Max Effect [3]: 2.5 mg/kg; PO Max effect (cumulative agitation score over 60 min) [3]: 22; PO LAD (lowest active dose) [3]: > 2.5 mg/kg
6 | COCC1CN(Cc2ccc3nc(C)c4nnc(-c5ccccc5Cl)n4c3c2)CCO1 (stereo not drawn) [Compound B-75] | 6.92 | 63.1 | SC Dose at max effect [3]: 10 mg/kg; SC Max effect (cumulative agitation score over 60 min) [3]: 15; SC LAD (lowest active dose) [3]: 2.5 mg/kg
7 | Cc1nc2ccc(C(=O)NC3CCN(C)CC3)cc2n2c(-c3ccccc3Cl)nnc12 [Compound B-47] | 2.04 | 145 | SC Dose at max effect [3]: 10 mg/kg; SC Max effect (cumulative agitation score over 60 min) [3]: 22; SC LAD (lowest active dose) [3]: > 10 mg/kg
8 | Cc1nc2ccc(CN3CCOC(CCF)C3)cc2n2c(-c3ccccc3Cl)nnc12 (stereo not drawn) [Compound B-89] | 11.7 | 50.1 | SC Dose at max effect [3]: 5 mg/kg; SC Max effect (cumulative agitation score over 60 min) [3]: 24; SC LAD (lowest active dose) [3]: > 5 mg/kg
9 | COc1ccc(Cl)c(-c2nnc3c(C)nc4ccc(CN5CCC(F)CC5)cc4n23)c1 [Compound B-97] | 14.1 | 77.6 | SC Dose at max effect [3]: 10 mg/kg; SC Max effect (cumulative agitation score over 60 min) [3]: 19; SC LAD (lowest active dose) [3]: 10 mg/kg
10 | Cc1nc2ccc(Br)cc2n2c(-c3cncc(Cl)c3)nnc12 [Compound B-171] | 117 | 741 | 
11 | CCNC(=O)c1ccc2c(c1)nc(C)c1nnc(-c3cncc(OC)c3)n12 [Compound B-172] | 126 | 7760 | 
12 | Cc1nc2ccc(Oc3ccncc3)cc2n2c(-c3ccccc3Cl)nnc12 [Compound B-30, 1-(2-Chlorophenyl)-4-methyl-8-(pyridin-4-yloxy)[1,2,4]triazolo[4,3-a]quinoxaline] | 5.75 | 24.5 | 
13 | CCCCOc1ccc(Cl)c(-c2nnc3c(C)nc4ccc(OCCc5cccnc5)cc4n23)c1 [Compound B-130] | 28.8 | 977 | 
14 | CCC(=O)Nc1ccc2nc(C)c3nnc(-c4ccccc4Cl)n3c2c1 [Compound B-28, N-[1-(2-Chlorophenyl)-4-methyl[1,2,4]triazolo[4,3-a]quinoxalin-8-yl]propanamide] | 2.29 | 13.2 | 
15 | COc1ccc2nc(C)c3nnc(-c4ccccc4OC(F)(F)F)n3c2c1 [Compound B-164] | 69.2 | 2510 | 
16 | CCCCOc1ccc(Cl)c(-c2nnc3c(C)nc4ccc(CNCC5CC5)cc4n23)c1 [Compound B-152] | 50.1 | 3890 | 
17 | Cc1cncc(-c2nnc3c(C)nc4ccc(C(F)(F)F)cc4n23)c1 [Compound B-162] | 67.6 | 871 | 
18 | Cc1nc2ccc(Br)cc2n2c(-c3cncc(OCC4CC4)c3)nnc12 [Compound B-125] | 27.5 | 3090 | 
19 | Cc1nc2ccc(CN3CCN(C)CC3)cc2n2c(-c3cc(OC(C)C)ccc3Cl)nnc12 [Compound B-170] | 102 | 3630 | 
20 | CCCOc1ccc(Cl)c(-c2nnc3c(C)nc4ccc(CNc5cccnc5)cc4n23)c1 [Compound B-138] | 33.9 | 708 | 
21 | Cc1nc2ccc(C(=O)OCCCc3ccccc3)cc2n2c(-c3ccccc3)nnc12 [Compound B-158] | 60.3 | 603 | 
22 | COc1ccc2nc(C)c3nnc(-c4cnccc4C)n3c2c1 [Compound B-173] | 135 | 977 | 
23 | Cc1nc2ccc(CO)cc2n2c(-c3ccccc3)nnc12 [Compound B-29, (4-Methyl-1-phenyl[1,2,4]triazolo[4,3-a]quinoxalin-8-yl)methanol] | 44.7 | 380 | 
24 | CCCCOc1ccc(Cl)c(-c2nnc3c(C)nc4ccc(CN5CCCC5)cc4n23)c1 [Compound B-79] | 8.13 | 1910 | 

Row | SMILES | IC50 [1] [nM] | IC50 [2] [nM] | further results
25 | CCCCOc1ccc(Cl)c(-c2nnc3c(C)nc4ccc(CN5CCC(O)CC5)cc4n23)c1 [Compound B-105] | 19.1 | 1450 | 
26 | COCCc1cncc(-c2nnc3c(C)nc4ccc(CN5CCOCC5)cc4n23)c1 [Compound B-198] | 89.1 | 5890 | 
27 | Cc1nc2ccc(C(=O)NCc3cc(F)ccn3)cc2n2c(-c3ccccc3Cl)nnc12 [Compound B-31] | 0.204 | 8.13 | 
28 | CCCOc1ccc(Cl)c(-c2nnc3c(C)nc4ccc(CN5CCC(F)CC5)cc4n23)c1 [Compound B-135] | 30.2 | 589 | 
29 | CCNC(=O)c1ccc2nc(C)c3nnc(-c4ccccn4)n3c2c1 [Compound B-181] | 240 | 5500 | 
30 | Cc1nc2ccc(C(=O)OCCc3ccccc3)cc2n2c(-c3ccccc3)nnc12 [Compound B-122] | 27.5 | 331 | 
31 | Cc1nc2ccc(Br)cc2n2c(-c3cccc(Cl)c3Cl)nnc12 [Compound B-166] | 95.5 | 282 | 
32 | CCOCc1cncc(-c2nnc3c(C)nc4ccc(CN5CCOCC5)cc4n23)c1 [Compound B-194] | 29.5 | 7760 | 
33 | COc1cncc(-c2nnc3c(C)nc4ccc(OC(F)(F)F)cc4n23)c1 [Compound B-165] | 81.3 | 501 | 
34 | Cc1nc2ccc(CN3CCC(F)CC3)cc2n2c(-c3cc(OC(C)C)ccc3Cl)nnc12 [Compound B-134] | 30.2 | 1100 | 
35 | CCNC(=O)c1ccc2c(c1)nc(C)c1nnc(-c3cccnc3OC)n12 [Compound B-180] | 204 | 1780 | 
36 | Cc1cncc(-c2nnc3c(C)nc4ccc(Br)cc4n23)c1 [Compound B-154] | 52.5 | 380 | 
37 | Cc1nc2ccc(CNc3cccnc3)cc2n2c(-c3cc(OC(C)C)ccc3Cl)nnc12 [Compound B-133] | 30.2 | 1230 | 
38 | COc1cncc(-c2nnc3c(C)nc4ccc(Br)cc4n23)c1 [Compound B-124] | 27.5 | 355 | 
39 | CCCCOc1cncc(-c2nnc3c(C)nc4ccc(CN5CCCC5)cc4n23)c1 [Compound B-206] | 135 | > 10000 | 
40 | COCCNC(=O)c1ccc2nc(C)c3nnc(-c4ccccc4Cl)n3c2c1 [Compound B-37] | 0.631 | 20.4 | 
41 | Cc1nc2ccc(C(N3CCOCC3)C(F)(F)F)cc2n2c(-c3ccccc3Cl)nnc12 (stereo not drawn) [Compound B-22, 1-(2-Chlorophenyl)-4-methyl-8-(2,2,2-trifluoro-1-morpholin-4-ylethyl) [1,2,4]triazolo[4,3-a]quinoxaline] | 7.76 | 89.1 | 
42 | COC1CCCN(Cc2ccc3nc(C)c4nnc(-c5ccccc5Cl)n4c3c2)C1 (stereo not drawn) [Compound B-86] | 11 | 38 | 
43 | Cc1nc2ccc(COc3ccccc3)cc2n2c(-c3ccccc3)nnc12 [Compound B-98] | 14.5 | 191 | 
44 | COc1cncc(-c2nnc3c(C)nc4ccc(C(F)(F)F)cc4n23)c1 [Compound B-163] | 69.2 | 1150 | 
45 | CCNC(c1ccc2nc(C)c3nnc(-c4ccccc4Cl)n3c2c1)C(F)(F)F (stereo not drawn) [Compound B-64] | 5.75 | 30.2 | 
46 | CCCOc1cncc(-c2nnc3c(C)nc4ccc(CNC5CCC5)cc4n23)c1 [Compound B-209] | 302 | > 10000 | 
47 | CCCOc1ccc(Cl)c(-c2nnc3c(C)nc4ccc(OC[C@@H]5CCCN5)cc4n23)c1 [Compound B-161] | 60.3 | 8710 | 
48 | Cc1nc2ccc(Br)cc2n2c(-c3cc(OC(C)C)ccc3Cl)nnc12 [Compound B-100] | 14.8 | 1230 | 
